Experimental data reported in PubChem BioAssay (NCI).
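How tested: cells in 96-well plates exposed to compound for 48 hours at five concentrations. TGI denotes the concentration required for complete inhibition of growth.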

What was measured:
Assay in all cases: DTP human tumour cell line panel, 48 h
RXF 393 renal = test system: RXF 393 renal
HS 578T breast = test system: HS 578T breast
U251 CNS = test system: U251 CNS
MDA-MB-435 = test system: MDA-MB-435
SNB-19 CNS = test system: SNB-19 CNS
HCC-2998 colon = test system: HCC-2998 colon
NCI-H522 lung = test system: NCI-H522 lung
UO-31 renal = test system: UO-31 renal
UACC-257 melanoma = test system: UACC-257 melanoma
T-47D breast = test system: T-47D breast
MCF7 breast = test system: MCF7 breast
786-0 renal = test system: 786-0 renal
DU-145 prostate = test system: DU-145 prostate
HCT-116 colon = test system: HCT-116 colon
SF-268 CNS = test system: SF-268 CNS
RPMI-8226 leukemia = test system: RPMI-8226 leukemia
OVCAR-5 ovarian = test system: OVCAR-5 ovarian
PC-3 prostate = test system: PC-3 prostate
M14 melanoma = test system: M14 melanoma
HL-60(TB) leukemia = test system: HL-60(TB) leukemia
KM12 colon = test system: KM12 colon
TK-10 renal = test system: TK-10 renal
UACC-62 melanoma = test system: UACC-62 melanoma
COLO 205 colon = test system: COLO 205 colon
SW-620 colon = test system: SW-620 colon
MALME-3M melanoma = test system: MALME-3M melanoma
SF-539 CNS = test system: SF-539 CNS
OVCAR-4 ovarian = test system: OVCAR-4 ovarian
NCI-H460 lung = test system: NCI-H460 lung
SK-MEL-28 melanoma = test system: SK-MEL-28 melanoma
K-562 leukemia = test system: K-562 leukemia
NCI/ADR-RES ovarian = test system: NCI/ADR-RES ovarian
OVCAR-8 ovarian = test system: OVCAR-8 ovarian
SK-OV-3 ovarian = test system: SK-OV-3 ovarian
HOP-62 NSCLC = test system: HOP-62 NSCLC
MDA-N = test system: MDA-N
HOP-92 NSCLC = test system: HOP-92 NSCLC
SK-MEL-5 melanoma = test system: SK-MEL-5 melanoma
CCRF-CEM leukemia = test system: CCRF-CEM leukemia
ACHN renal = test system: ACHN renal
IGROV1 ovarian = test system: IGROV1 ovarian
CAKI-1 renal = test system: CAKI-1 renal
SN12C renal = test system: SN12C renal
EKVX NSCLC = test system: EKVX NSCLC
A549 NSCLC = test system: A549 NSCLC
A498 renal = test system: A498 renal
SNB-75 CNS = test system: SNB-75 CNS
LOX IMVI melanoma = test system: LOX IMVI melanoma
HCT-15 colon = test system: HCT-15 colon
NCI-H23 lung = test system: NCI-H23 lung
NCI-H226 lung = test system: NCI-H226 lung
SK-MEL-2 melanoma = test system: SK-MEL-2 melanoma
SR leukemia = test system: SR leukemia
BT-549 breast = test system: BT-549 breast
OVCAR-3 ovarian = test system: OVCAR-3 ovarian
MDA-MB-231 breast = test system: MDA-MB-231 breast
SF-295 CNS = test system: SF-295 CNS
HT29 colon = test system: HT29 colon

Compound: N#C/C(=C/N1C(=O)/C(=C/c2ccc([N+](=O)[O-])cc2)SC1=S)c1nc2ccccc2s1
- TGI (RXF 393 renal): 52.6 µM
- TGI (HS 578T breast): > 100 µM
- TGI (U251 CNS): 41.7 µM
- TGI (MDA-MB-435): > 100 µM
- TGI (SNB-19 CNS): > 100 µM
- TGI (HCC-2998 colon): 29.9 µM
- TGI (NCI-H522 lung): 53.8 µM
- TGI (UO-31 renal): 63.3 µM
- TGI (UACC-257 melanoma): 40.5 µM
- TGI (T-47D breast): 69.5 µM
- TGI (MCF7 breast): 83.2 µM
- TGI (786-0 renal): > 100 µM
- TGI (DU-145 prostate): > 100 µM
- TGI (HCT-116 colon): 32.7 µM
- TGI (SF-268 CNS): > 100 µM
- TGI (RPMI-8226 leukemia): 68.7 µM
- TGI (OVCAR-5 ovarian): 80.8 µM
- TGI (PC-3 prostate): 40.4 µM
- TGI (M14 melanoma): 98.5 µM
- TGI (HL-60(TB) leukemia): > 100 µM
- TGI (KM12 colon): > 100 µM
- TGI (TK-10 renal): 66.9 µM
- TGI (UACC-62 melanoma): 24 µM
- TGI (COLO 205 colon): 30 µM
- TGI (SW-620 colon): > 100 µM
- TGI (MALME-3M melanoma): 73.3 µM
- TGI (SF-539 CNS): > 100 µM
- TGI (OVCAR-4 ovarian): > 100 µM
- TGI (NCI-H460 lung): 43.8 µM
- TGI (SK-MEL-28 melanoma): > 100 µM
- TGI (K-562 leukemia): > 100 µM
- TGI (NCI/ADR-RES ovarian): > 100 µM
- TGI (OVCAR-8 ovarian): > 100 µM
- TGI (SK-OV-3 ovarian): 43.6 µM
- TGI (HOP-62 NSCLC): 7.32 µM
- TGI (MDA-N): > 100 µM
- TGI (HOP-92 NSCLC): 63.3 µM
- TGI (SK-MEL-5 melanoma): 26.9 µM
- TGI (CCRF-CEM leukemia): > 100 µM
- TGI (ACHN renal): 55.3 µM
- TGI (IGROV1 ovarian): > 100 µM
- TGI (CAKI-1 renal): > 100 µM
- TGI (SN12C renal): 81 µM
- TGI (EKVX NSCLC): 61.4 µM
- TGI (A549 NSCLC): > 100 µM
- TGI (A498 renal): 33.2 µM
- TGI (SNB-75 CNS): 69.2 µM
- TGI (LOX IMVI melanoma): > 100 µM
- TGI (HCT-15 colon): > 100 µM
- TGI (NCI-H23 lung): 89.1 µM
- TGI (NCI-H226 lung): 78.4 µM
- TGI (SK-MEL-2 melanoma): 36 µM
- TGI (SR leukemia): > 100 µM
- TGI (BT-549 breast): 73.7 µM
- TGI (OVCAR-3 ovarian): 15.9 µM
- TGI (MDA-MB-231 breast): 37 µM
- TGI (SF-295 CNS): 33.9 µM
- TGI (HT29 colon): > 100 µM
